# Source: BindingDB's records for patent US20230270751 (Reviral, 2023)
# pEC50: −log10 of the molar value.
# Molecular target: T1, Nucleoprotein (Human respiratory syncytial virus A (strain A2), UniProt P03418)
# T1 sequence (P03418 whole entry): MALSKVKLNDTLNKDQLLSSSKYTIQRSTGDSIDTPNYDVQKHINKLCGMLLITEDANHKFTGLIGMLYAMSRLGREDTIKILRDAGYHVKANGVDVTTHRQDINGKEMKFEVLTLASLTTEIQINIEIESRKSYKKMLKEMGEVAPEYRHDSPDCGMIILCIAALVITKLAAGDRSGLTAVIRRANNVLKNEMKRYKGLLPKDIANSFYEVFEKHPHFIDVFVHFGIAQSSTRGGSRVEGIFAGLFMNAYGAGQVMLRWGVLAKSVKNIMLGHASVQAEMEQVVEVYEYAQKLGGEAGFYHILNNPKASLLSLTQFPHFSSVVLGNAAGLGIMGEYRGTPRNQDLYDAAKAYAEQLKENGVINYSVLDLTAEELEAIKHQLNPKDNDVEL
# Test: Not found
# Text: Not found
row,Structure (SMILES),pEC50
1,"O=C(N[C@H]1N=C(c2ccccc2)c2cccc(F)c2NC1=O)c1c(-c2ccccc2F)nn2c1OCC(C1CC1)C2 (stereo not given in full) [US20230270751, Example 13]",7.55
2,"CN(C(=O)OC(C)(C)C)C1COc2c(C(=O)N[C@H]3N=C(c4ccccc4)c4cccc(F)c4NC3=O)c(-c3ccccc3F)nn2C1 (stereo not given in full) [US20230270751, Example 107]",7.03
3,"O=C(N[C@H]1N=C(c2ccccc2)c2cccc(F)c2NC1=O)c1c(-c2ccccc2F)nn2c1OCC(CN1CCOCC1)C2 (stereo not given in full) [US20230270751, Example 173]",7.04
4,"O=C(N[C@H]1N=C(c2ccccc2)c2cccc(F)c2NC1=O)c1c(-c2ccccc2F)nn2c1OCC(CN1CCCC1)C2 (stereo not given in full) [US20230270751, Example 182]",7.11
5,"O=C(N[C@H]1N=C(c2ccccc2)c2cccc(F)c2NC1=O)c1c(-c2c(F)cccc2F)nn2c1OCCC2 [US20230270751, Example 196]",7.60
